Measured values taken from patent US7060790B1, “Peptides and nucleic acids derived from Eisenia foetida and the use thereof” (Vlaams Interuniversitair Instituut voor Biotechnologie VZW, priority 1997, dated 2006).

How the values were obtained:
CCF-1 [1] = test: Inhibition of CCF-1 mediated trypanolysis (T. brucei) by antibodies and carbohydrates; format: cell-based, Eisenia foetida; settings: for CCF-1 mediated trypanolysis % Inhibition / CCF-1 mediated trypanolysis % Lysis: inhibitor 10 μg/ml, CCF-1 4 μg/ml
Procedure: (§1) Purified parasites were resuspended at 4×10^6/ml PSG (PBS, consisting of 2.13 g NaCl, 8.45 g Na2HPO4 and 0.43 g NaH2PO4 per liter, supplemented with 1% glucose). […] of suspension were mixed with […] of different concentrations of CF, CCF-1 or TNF-α in 96-well culture plate. Quantification of the trypanolysis was based on the determination of parasite viability using Ethidium homodimer (EthD-1, Molecular Probes). EthD-1 is excluded by intact plasma membrane of live parasites. However, it enters the cells with damaged membrane and undergoes enhancement of fluorescence on binding nucleic acids, thereby producing a bright red fluorescence in dead cells. Briefly, after 4.5 hrs incubation at 30° C., […] of […] EthD-1 was added to the wells. The mean fluorescence intensity of triplicate cultures (±SD) was recorded 30 min later in a cytofluorimeter (Cytofluor II, PerSeptive Biosystems) using excitation/emission filters at 530±25/645±40 nm. A set of control was included in each experiments: (A) a parasite-free control to account for possible background fluorescence (B) a control of 100% lysis, prepared by treating the parasites with […] 2% saponin for about 10 min before adding EthD-1 (C) a control in which the trypanolytic component was replaced by PSG was considered as 0% lysis. (B) and (C) were used to build a standard curve and the % lysis in test samples was estimated by linear regression. In some assays parasite lysis was assessed by light microscopy counting the remaining parasites. Background lysis, i.e. lysis of trypanosomes within 5 hrs incubation at 30° C. in absence of lytic molecules, never exceeded 5–10%.
(§2) For inhibition experiments CCF-1 or TNF-α were pre-incubated 1 hr at 30° C. with 10 […] of antibodies (anti-CCF1, anti-TIP or irrelevant mAb) or sugars (chitobiose, cellobiose, Sigma). All experiments were repeated at least 3 times.

TNF-α = biological target: T1, TNF-α (Mus musculus, UniProt P06804); test: Inhibition of TNF-α mediated trypanolysis (T. brucei) by antibodies and carbohydrates; format: cell-based; settings: inhibitor 10 μg/ml, TNF-α 1.000 U/ml
T1 sequence (P06804 80-235 limits assumed): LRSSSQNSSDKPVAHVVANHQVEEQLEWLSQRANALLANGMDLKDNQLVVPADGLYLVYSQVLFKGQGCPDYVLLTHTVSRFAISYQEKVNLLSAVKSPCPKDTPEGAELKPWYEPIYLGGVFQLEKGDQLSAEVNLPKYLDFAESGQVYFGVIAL
Procedure: as §1, §2

[2] = tested on: trypanolytic activity (T. cruzi) of CF; test: Inhibition of the trypanolytic activity (T. cruzi) of CF by antibodies and carbohydrates; format: cell-based
Procedure: as §1, §2

[3] = tested on: Trypanosoma brucei AnTat 1.1E; test: Trypanolytic assay on T. brucei; format: cell-based
Procedure: Pleiomorphic and monomorphic Trypanosoma brucei AnTat 1.1E clone were provided by Dr N. Van Meirvenne (Institute of Tropical Medicine, Antwerp, Belgium).
as §1

anti-CCF-1 mAb 12C9 = test: Dot spot assay of tryptic peptides with anti-CCF-1 mAb; format: binding
Procedure: The separated peptides obtained from HPLC purification of the tryptic digest of CCF-1 were analyzed for reactivity with the anti-CCF-1 mAb via a dot spot assay. […] The obtained sequence is shown in SEQ ID NO:1.

CCF-1 [4] = test: Inhibition of the cytolytic activity of CCF-1 (L929) by antibodies and carbohydrates; format: cell-based, Eisenia foetida
Procedure: To test whether the cytolytic activity of CCF-1 is mediated by a similar or a different domain as that one utilized for the trypanolytic activity, CCF-1 was preincubated with N,N′-diacetylchitobiose or anti-TNF/TIP antibodies and tested in the L-929 lysis assay (21). […] This is in sharp contrast to the cytolytic activity of TNF-α that is not influenced by anti-TNF/TIP antibodies nor by N,N′-diacetylchitobiose.

T. cruzi = test: Trypanolytic activity on T. cruzi; format: cell-based; settings: trypomastigote versus epimastigote forms
Procedure: as §1, with “(B) and (C) were used to build a standard curve and the % lysis in test samples was estimated by linear regression.” left out, “Background lysis, i.e. lysis of trypanosomes within 5 hrs incubation at 30° C. in absence of lytic molecules, never exceeded 5–10%.” left out

[5] = inhibitor 10 μg/ml, CF final dilution 1:4.000
[6] = Experiment 1, inhibitor 10 μg/ml, CCF-1 4 μg/ml, L929

Compound: O=C[C@H](O)[C@@H](O)[C@H](O[C@@H]1O[C@H](CO)[C@@H](O)[C@H](O)[C@H]1O)[C@H](O)CO [Cellobiose]
- inhibition of the trypanolytic activity of CCF-1 (in words) (CCF-1 [1]): does not influence the trypanolytic activity of CCF-1
- CCF-1 mediated trypanolysis % Inhibition (CCF-1 [1]): 0%
- CCF-1 mediated trypanolysis % Lysis (CCF-1 [1]): 49%
- TNF-α mediated trypanolysis % Lysis (TNF-α): 41%
- inhibition at 10 µg/mL (TNF-α): 0%
- inhibition at 10 µg/mL ([2]; Trypanosoma cruzi, inhibitor 10 μg/ml, CF final dilution 1:4.000, read-out: CF-1 mediated trypanolysis % Inhibition): 0%
- CF-1 mediated trypanolysis % Lysis [2, 5]: 67%

Compound: NH2-SGEIDIIETIGNR-COOH (chain 1 H-SGEIDIIETIGNR-OH; chain 2 H-SGEIDIIETIGNR-OH; listed as Eisenia foetida) [CCF-1/TIP]
- trypanolytic activity on T. brucei (in words) [3]: trypanolytic in a time- and dose-dependent way
- trypanolytic activity compared with the TNF/TIP peptide ([3]; FIG. 1): reproducibly more trypanolytic than the TNF/TIP peptide
- reactivity with the anti-CCF-1 mAb 12C9 in dot spot assay (anti-CCF-1 mAb 12C9): weakly positive

Compound: CC(=O)N[C@H]1[C@H](O[C@H]2[C@H](O)[C@@H](NC(C)=O)C(O)O[C@@H]2CO)O[C@H](CO)[C@@H](O)[C@@H]1O (stereo partly shown) [N,N′-diacetylchitobiose]
- inhibition of the trypanolytic activity of CCF-1 (in words) (CCF-1 [1]): found to inhibit also the trypanolytic activity of CCF-1
- CCF-1 mediated trypanolysis % Inhibition (CCF-1 [1]): 73%
- CCF-1 mediated trypanolysis % Lysis (CCF-1 [1]): 3%
- inhibition of the trypanolytic activity of rCCF-1 (in words) (CCF-1 [1]; rCCF-1, FIG. 3A, 3B): inhibits potently
- TNF-α mediated trypanolysis % Inhibition (TNF-α): 100%
- TNF-α mediated trypanolysis % Lysis (TNF-α): 0%
- inhibition of the T. cruzi lytic activity of CF (in words) [2]: substantially decreased
- CF-1 mediated trypanolysis % Inhibition [2, 5]: 70%
- CF-1 mediated trypanolysis % Lysis [2, 5]: 19%
- inhibition of the interaction of CCF-1 with L-929 cells (in words) (CCF-1 [4]; CCF-1 preincubated with inhibitor): completely inhibited
- CCF-1 mediated cytolysis % Inhibition (CCF-1 [4]; [6]): 100%
- CCF-1 mediated cytolysis % Lysis (CCF-1 [4]; [6]): 0%

Compound: TNF-α
- TNF-α mediated trypanolysis % Lysis ([3]; TNF-α 1.000 U/ml, no inhibitor): 41%
- T. cruzi forms on which trypanolytic activity was recorded (T. cruzi): only be recorded on the trypomastigote but not the epimastigote forms
- binding to chitobiose / binding capacity towards N,N′-diacetylchitobiose (Binding to chitobiose): bind to immobilized chitobiose
